Data: patent US9586952B2, “Polycyclic estrogen receptor modulators and uses thereof” (SERAGON PHARMACEUTICALS, INC., priority 2013, dated 2017)

Experiments:
[1] = target: T1, ER-α (Homo sapiens, UniProt P03372); assay: Breast Cancer Cell ER-α In Cell Western Assay (SP1); format: cell-based; details: MCF-7 cells, 4 or 24 hr post compound addition, SP1 antibody; for Emax: MCF7, read-out: ER-α In Cell Western Assay (SP1) Max Response; for DC50: read-out: ER-α In Cell Western Assay (SP1) IC50
T1 construct: endogenous in cells; host or cells: MCF-7
T1 sequence (P03372 1-595): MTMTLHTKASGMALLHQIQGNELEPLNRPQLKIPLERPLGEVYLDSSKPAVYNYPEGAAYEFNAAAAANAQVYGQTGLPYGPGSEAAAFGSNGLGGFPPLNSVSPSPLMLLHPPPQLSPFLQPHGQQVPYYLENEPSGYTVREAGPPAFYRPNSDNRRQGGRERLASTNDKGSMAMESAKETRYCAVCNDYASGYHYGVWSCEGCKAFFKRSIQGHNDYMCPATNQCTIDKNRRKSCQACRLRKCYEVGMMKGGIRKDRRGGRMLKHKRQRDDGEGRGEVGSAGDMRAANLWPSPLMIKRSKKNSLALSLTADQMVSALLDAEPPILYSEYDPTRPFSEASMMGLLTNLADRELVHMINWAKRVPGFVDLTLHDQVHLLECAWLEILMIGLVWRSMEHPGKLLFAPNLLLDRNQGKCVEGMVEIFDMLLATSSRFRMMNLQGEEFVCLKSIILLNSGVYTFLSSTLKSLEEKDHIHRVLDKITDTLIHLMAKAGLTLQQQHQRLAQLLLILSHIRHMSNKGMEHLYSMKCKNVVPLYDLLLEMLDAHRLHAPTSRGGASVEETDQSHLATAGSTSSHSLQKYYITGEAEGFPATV
Description: MCF-7 cells were adjusted to a concentration of 200,000 cells per mL in RPMI containing 10% charcoal-stripped FBS and 20 mM HEPES. 16 microliters of the cell suspension (3200 cells) was added to each well of a poly-D-lysine 384 well plate, and the cells were incubated overnight to allow the cells to adhere. The following day an eleven point, serial semilog dilution of each compound was added to the cells in 16 μL at a final concentration ranging from 0.3-0.000003 μM. At 4 or 24 hr post compound addition, the cells were fixed (10% formalin in PBS) for 20 minutes. Cells were permeablized in PBS 0.1% Triton and blocked with LICOR blocking buffer (50 μl/well, 90′). The wells were then incubated overnight at 4° C. with SP1 rabbit monoclonal Ab (Thermo Scientific) diluted 1:1000 in LICOR blocking buffer/0.1% Tween-20. Wells which were treated with blocking buffer with Tween but no antibody were used as a background control. Wells were washed with 0.1% Tween-20/PBS and then incubated in goat anti-rabbit IRDye™ 800 CW (LICOR Inc.; 1:10000) and DRAQ5 DNA dye (1:2000 for 2 mM stock) diluted in LICOR blocking buffer containing 0.1% Tween-20 and 0.01% SDS for 60 minutes. Cells were washed (50 μl/well, 5′ each) in 0.1% Tween-20/PBS. Plates were scanned on a LICOR Odyssey infrared imaging system. Integrated intensities in the 800 nm channel and 700 nm channel were measured to determine levels of ER and DNA respectively. Percent ER levels were determined as follows: (Integrated intensity 800 nm sample/integrated intensity 700 nm sample)/(Integrated intensity 800 nm untreated cells/integrated intensity 700 nm untreated cells)×100=% ER levels.

[2] = tested on: MCF-7 cells; assay: MCF7 Viability Assay (Breast Cancer Cell Viability Assay); format: cell-based; details: 5 days' compound exposure, CellTiter-Glo; for IC50: Homo sapiens, MCF7, 120 h
Description: MCF-7 cells were adjusted to a concentration of 20,000 cells per mL in RPMI containing 10% FBS and 20 mM HEPES. 16 microliters of the cell suspension (320 cells) was added to each well of a 384 well plate, and the cells were incubated overnight to allow the cells to adhere. The following day an eleven point, serial semilog dilution of each compound was added to the cells in 16 μL at a final concentration ranging from 0.3-0.000003 μM. After 5 days' compound exposure, 16 μL of CellTiter-GLo (Promega, Madison Wis.) was added to the cells, and the relative luminescence units (RLUs) of each well were determined. CellTiter-Glo added to 32 μL of medium without cells was used to obtain a background value. The Percent viability of each sample was determined as follows: (RLU sample-RLU background/RLU untreated cells-RLU background)×100=% viability.

| SMILES | Emax [1] | DC50 [1] | MCF7 Viability Assay Max Response [2] | IC50 [2] |
| --- | --- | --- | --- | --- |
| Cc1cccnc1/C(=C(\c1ccc(/C=C/C(=O)O)cc1)c1ccc(-c2cn[nH]c2)cc1)C1CCC1 [Example 40, (E)-3-(4-((E)-1-(4-(1H-Pyrazol-4-yl)phenyl)-2-cyclobutyl-2-(3-methylpyridin-2-yl)vinyl)phenyl)acrylic acid] | ≥ 40% | ≤ 100 nM | ++ (++ = a single % value ≧ 40%) | > 100 nM |
| O=C(O)/C=C/c1ccc(/C(=C(\c2ccc(F)cc2Cl)C2CCC2)c2ccc(N3CCOCC3)cc2)cc1 [Example 36, (E)-3-(4-((E)-2-(2-Chloro-4-fluorophenyl)-2-cyclobutyl-1-(4-morpholinophenyl)vinyl)phenyl)acrylic acid] | ≥ 40% | ≤ 100 nM | ++ (++ = a single % value ≧ 40%) | ≤ 100 nM |
| CC/C(=C(/c1ccc(/C=C/C(=O)O)cc1)c1ccc(-c2cncs2)cc1F)c1ccccc1 [Example 20, (E)-3-(4-((E)-1-(2-Fluoro-4-(thiazol-5-yl)phenyl)-2-phenylbut-1-en-1-yl)phenyl)acrylic acid] | ≥ 40% | ≤ 100 nM | ++ (++ = a single % value ≧ 40%) | ≤ 100 nM |
| COc1ccc(/C(=C(\c2ccc(/C=C/C(=O)O)cc2)c2ccc(-c3cn[nH]c3)cc2)C2CCC2)c(Cl)c1 [Example 51, (E)-3-(4-((E)-1-(4-(1H-Pyrazol-4-yl)phenyl)-2-(2-chloro-4-methoxyphenyl)-2-cyclobutylvinyl)phenyl)acrylic acid] | ≥ 40% | ≤ 100 nM | ++ (++ = a single % value ≧ 40%) | ≤ 100 nM |
| O=C(O)/C=C/c1ccc(/C(=C(\c2ccc(F)cc2Cl)C2CCC2)c2ccc(-c3nn[nH]n3)cc2)cc1 [Example 49, (E)-3-(4-((E)-1-(4-(2H-Tetrazol-5-yl)phenyl)-2-(2-chloro-4-fluorophenyl)-2-cyclobutylvinyl)phenyl)acrylic acid] | < 40% | > 100 nM | + (+ = a single % value < 40%) | > 100 nM |
| O=C(O)/C=C/c1ccc(/C(=C(\c2ccccc2)C2CCC2)c2ccc(-c3cnn(CCO)c3)cc2)cc1 [Example 67, (E)-3-(4-((E)-2-Cyclobutyl-1-(4-(1-(2-hydroxyethyl)-1H-pyrazol-4-yl)phenyl)-2-phenylvinyl)phenyl)acrylic acid] | ≥ 40% | ≤ 100 nM | ++ (++ = a single % value ≧ 40%) | ≤ 100 nM |
| CC/C(=C(/c1ccc(/C=C/C(=O)O)cc1)c1ccc(-c2ccn[nH]2)cc1)c1ccccc1 [Example 6, (E)-3-(4-((E)-1-(4-(1H-Pyrazol-5-yl)phenyl)-2-phenylbut-1-en-1-yl)phenyl)acrylic acid] | ≥ 40% | ≤ 100 nM | ++ (++ = a single % value ≧ 40%) | > 100 nM |
| N#Cc1cc(Cl)ccc1/C(=C(\c1ccc(/C=C/C(=O)O)cc1)c1ccc(-c2cncs2)cc1)C1CCC1 [Example 62, (E)-3-(4-((E)-2-(4-Chloro-2-cyanophenyl)-2-cyclobutyl-1-(4-(thiazol-5-yl)phenyl)vinyl)phenyl)acrylic acid] | ≥ 40% | ≤ 100 nM | ++ (++ = a single % value ≧ 40%) | ≤ 100 nM |
| CC/C(=C(/c1ccc(/C=C/C(=O)O)cc1)c1ccc(-c2nccs2)cc1)c1ccccc1 [Example 8, (E)-3-(4-((E)-2-Phenyl-1-(4-(thiazol-2-yl)phenyl)but-1-en-1-yl)phenyl)acrylic acid] | ≥ 40% | ≤ 100 nM | ++ (++ = a single % value ≧ 40%) | > 100 nM |
| CC/C(=C(/c1ccc(/C=C/C(=O)O)cc1)c1ccc(-c2cncs2)cc1)c1cccc(OC)c1 [Example 30, (E)-3-(4-((E)-2-(3-Methoxyphenyl)-1-(4-(thiazol-5-yl)phenyl)but-1-en-1-yl)phenyl)acrylic acid] | ≥ 40% | ≤ 100 nM | ++ (++ = a single % value ≧ 40%) | ≤ 100 nM |
| O=C(O)/C=C/c1ccc(/C(=C(\c2ncc(C(F)(F)F)cc2Cl)C2CCC2)c2ccc(-c3cncs3)cc2)cc1 [Example 59, (E)-3-(4-((E)-2-(3-Chloro-5-(trifluoromethyl)pyridin-2-yl)-2-cyclobutyl-1-(4-(thiazol-5-yl)phenyl)vinyl)phenyl)acrylic acid] | ≥ 40% | ≤ 100 nM | ++ (++ = a single % value ≧ 40%) | ≤ 100 nM |
| O=C(O)/C=C/c1ccc(/C(=C(\c2ccc(F)cc2Cl)C2CCC2)c2ccc(-c3ccncc3)cc2)cc1 [Example 56, (E)-3-(4-((E)-2-(2-Chloro-4-fluorophenyl)-2-cyclobutyl-1-(4-(pyridin-4-yl)phenyl)vinyl)phenyl)acrylic acid] | ≥ 40% | ≤ 100 nM | ++ (++ = a single % value ≧ 40%) | ≤ 100 nM |
| N#Cc1ccc(/C(=C(\c2ccc(/C=C/C(=O)O)cc2)c2ccc(-c3cn[nH]c3)cc2)C2CCC2)c(Cl)c1 [Example 3, (E)-3-(4-((E)-1-(4-(1H-Pyrazol-4-yl)phenyl)-2-(2-chloro-4-cyanophenyl)-2-cyclobutylvinyl)phenyl) acrylic acid] | ≥ 40% | ≤ 100 nM | ++ (++ = a single % value ≧ 40%) | ≤ 100 nM |
| O=C(O)/C=C/c1ccc(/C(=C(\c2ncccc2Cl)C2CCC2)c2ccc(-c3cn[nH]c3)cc2)cc1 [Example 42, (E)-3-(4-((E)-1-(4-(1H-Pyrazol-4-yl)phenyl)-2-(3-chloropyridin-2-yl)-2-cyclobutylvinyl)phenyl)acrylic acid] | ≥ 40% | ≤ 100 nM | ++ (++ = a single % value ≧ 40%) | ≤ 100 nM |
| CC/C(=C(/c1ccc(/C=C/C(=O)O)cc1)c1ccc(-n2ccnc2)cc1)c1ccccc1 [Example 17, (E)-3-(4-((E)-1-(4-(1H-Imidazol-1-yl)phenyl)-2-phenylbut-1-en-1-yl)phenyl)acrylic acid] | ≥ 40% | > 100 nM | ++ (++ = a single % value ≧ 40%) | > 100 nM |
| CC/C(=C(/c1ccc(/C=C/C(=O)O)cc1)c1ccc(-c2cncs2)cc1)c1ccncc1Cl [Example 28, (E)-3-(4-((E)-2-(3-Chloropyridin-4-yl)-1-(4-(thiazol-5-yl)phenyl)but-1-en-1-yl)phenyl)acrylic acid] | ≥ 40% | ≤ 100 nM | ++ (++ = a single % value ≧ 40%) | ≤ 100 nM |
| O=C(O)/C=C/c1ccc(/C(=C(\c2ccccc2)C2CCC2)c2cccc(-c3cn[nH]c3)c2)cc1 [Example 26, (E)-3-(4-((E)-1-(3-(1H-Pyrazol-4-yl)phenyl)-2-cyclobutyl-2-phenylvinyl)phenyl)acrylic acid] | ≥ 40% | > 100 nM | + (+ = a single % value < 40%) | > 100 nM |
